Residues, ends and D or L forms follow the SMILES beside them.
Experiments:
[1] = test system: NCI's 60-cell line human tumor panel; experiment: NCI 60-cell line human tumor in vitro screen; type: cell-based; conditions: 60-cell line panel; 10^-5 M high test concentration, log10 dilutions; 48 hours; read-out: overall panel-averaged GI50 concentration
Excerpt: The following measures are used to express drug activity by giving the drug dose which reduces cell growth to a specified percentage of growth:
ED50 (P388) and GI50 (HTCL) are the drug doses needed to reduce the percent growth to 50%. There is no mathematical difference between ED50 and GI50, which are both calculated using the same formula. The only difference is historical usage.
Total Growth Inhibition ("TGI") is the drug dose needed to yield zero percent growth, i.e., just as many cells at the end of the experiment as were present in the beginning. Whether just as many cells were killed as were produced (steady state), or no growth occurred (total inhibition), cannot be distinguished. […]
Percent Growths are calculated for each dose. […]
(§1) At the start of an experiment, cells from the in vitro cell cultures are inoculated into the appropriate tubes or microtiter plates. One set of control tubes/plates is immediately counted to determine the number of cells at the start of the experiment. This is the "baseline count", or "Tzero reading". At the end of the experiment (48 hours later) a second set of control tubes/plates is analyzed to determine the "Control Growth" value. The growth (or death) of cells relative to the initial quantity of cells is used to define the "Percent of Growth". […]

[2] = test system: MDA-MB-435 breast cancer cell line; experiment: NCI in vitro screen, MDA-MB-435; type: cell-based, human
Excerpt: (§2) Total Growth Inhibition ("TGI") is the drug dose needed to yield zero percent growth, i.e., just as many cells at the end of the experiment as were present in the beginning. Whether just as many cells were killed as were produced (steady state), or no growth occurred (total inhibition), cannot be distinguished.
(§3) Lethal Concentration 50% ("LC50 ") is the drug concentration which reduces growth to -50%, i.e., removes half of the cells originally present at the beginning of the experiment.
(§4) Each drug is tested at five (5) doses: 100-10-1-0.1-0.01 μg/ml. Percent Growths are calculated for each dose. The two (or three) doses with growth values above, below, (or near to) 50% growth are used to calculate the ED50 /GI50 using a linear regression formula. The log of the dose is used during the regression computation. […]
as §1

[3] = test system: breast cancer cell lines; experiment: NCI in vitro screen, breast cancer cell lines; type: cell-based, human; conditions: two breast cancer cell lines
Protocol: as §2
as §4, with “computation. If no dose yields a growth value under 50%, the results are expressed as: ED50 >(highest dose). If no dose yields growth higher than 50% growth, then ED50 <(lowest dose).” for “computation.”
as §1

[4] = test system: CNS cancer cell lines; experiment: NCI in vitro screen, CNS cancer cell lines; type: cell-based, human
Protocol: as §2
as §4, with “computation. If no dose yields a growth value under 50%, the results are expressed as: ED50 >(highest dose). If no dose yields growth higher than 50% growth, then ED50 <(lowest dose).” for “computation.”
as §1

[5] = test system: ovarian cancer cell line; experiment: NCI in vitro screen, ovarian cancer cell line; type: cell-based, human; conditions: one ovarian cancer cell line
Protocol: as §2
as §4, with “computation. If no dose yields a growth value under 50%, the results are expressed as: ED50 >(highest dose). If no dose yields growth higher than 50% growth, then ED50 <(lowest dose).” for “computation.”
as §1

[6] = test system: non-small cell lung cancer cell line; experiment: NCI in vitro screen, non-small cell lung cancer cell line; type: cell-based, human; conditions: one non-small cell lung cancer cell line
Protocol: as §2
as §4, with “computation. If no dose yields a growth value under 50%, the results are expressed as: ED50 >(highest dose). If no dose yields growth higher than 50% growth, then ED50 <(lowest dose).” for “computation.”
as §1

[7] = test system: five other cell lines; experiment: NCI in vitro screen, five other cell lines; type: cell-based, human; conditions: five other cell lines (not named)
Protocol: as §3
Each drug is tested at five (5) doses: 100-10-1-0.1-0.01 μg/ml. Percent Growths are calculated for each dose. The two (or three) doses with growth values above, below, (or near to) 50% growth are used to calculate the ED50 /GI50 using a linear regression formula. The log of the dose is used during the regression computation. If no dose yields a growth value under 50%, the results are expressed as: ED50 >(highest dose). If no dose yields growth higher than 50% growth, then ED50 <(lowest dose). Similar calculations are performed for the TGI at 0% growth, and at -50% growth for the LC50.
as §1

Compound | GI50 [1] | LC50 [2] | Total Growth Inhibition (TGI) [3] | Total Growth Inhibition (TGI) ([4]; one CNS cancer cell line) | Total Growth Inhibition (TGI) [5] | Total Growth Inhibition (TGI) [6] | LC50 [7] | Total Growth Inhibition (TGI) ([4]; two CNS cancer cell lines)
CC[C@H](C)[C@@H]1NC(=O)[C@H](Cc2ccccc2)NC(=O)[C@@H]2CCCN2C(=O)[C@H](Cc2ccccc2)NC(=O)[C@@H]2CCCN2C(=O)[C@H](CCC(N)=O)NC(=O)[C@@H]2CCCN2C(=O)[C@H](Cc2ccccc2)NC1=O [phakellistatin 11, cyclo-(Pro-Gln-Pro-Phe-Pro-Phe-Ile-Phe)] (cyclo(FIFPQPFP)) | 132 nM | less than 10^-5 M per milliliter | less than 10^-7 M per milliliter | less than 10^-7 M per milliliter | less than 10^-7 M per milliliter | less than 10^-7 M per milliliter | less than 10^-5 M per milliliter | –
cyclo-(Pro-Leu-Thr-Pro-Ile-Pro-Trp-Val) (PLTPIPWV; head-to-tail cyclic) [phakellistatin 10, cyclic octapeptide isolated from the marine sponge Phakellia sp] | 790 nM | less than 10^-5 M per milliliter | less than 10^-6 M per milliliter | – | – | – | – | less than 10^-6 M per milliliter
